According to patent US12383526B2, “Optimized sigma-1 agonist method of responder selection and treatment” (ANAVEX LIFE SCIENCES CORP., priority 2018, dated 2025):

Tested on: subjects with mild-to-moderate AD
Assay: ADCS-ADL (Activities of Daily Living) change from baseline, 57-week Phase 2a study and 208-week extension study
Format: in vivo, human
Parameters: key to unadjusted change in ADCS-ADL score, Mean ± Std. Dev: change from baseline on ADCS-ADL scale 0–78, higher = greater function
Description: The present study integrates and analyzes data and samples from two consecutive clinical trials: 57-week study and 208-week study. 57-week study was a multicenter Phase 2a clinical trial of the drug ANAVEX2-73 that recruited a sample of 32 subjects with mild-to-moderate AD. It consisted of two parts: Part A was a simple randomized, open-label, two-period, cross-over, adaptive trial lasting up to 5 weeks. Each period involved one specific administration route and two possible dose levels: in one period the oral dose (30 mg or 50 mg) was administrated and in the other period an intravenous (IV) form (3 mg or 5 mg) was administered, making a total of 8 possible dose administration schemes in Part A (details available in FIG. 2A). The two periods were separated by a wash-out period of 12 days where no dose was given.
Part B, following immediately after Part A, was an open-label extension of the oral daily dose for an additional 52 weeks. The primary endpoint of 57-week study was to establish the safety and tolerability of the drug. Secondary endpoints aimed at establishing the relationship between dosing regimen and pharmacodynamics-exploratory efficacy outcomes of cognition and function. Cognition was assessed by the Mini Mental State Examination (MMSE), while functional abilities by the Alzheimer's Disease Co-operative Study—Activities of Daily Living Inventory (ADCS-ADL). Additional cognitive measures included the Cogstate Brief Battery (CBB), and functional measures of Electroencephalography and Event-Related Potential (EEG and ERP). Part B continued an adaptive oral administration scheme. Table 12 summarizes mean oral dose administration during the 57-week study study.
Due to favorable safety and tolerability profile of the 57-week study (Table 2), and in response to requests from patients and caregivers, a 208-week open-label extension study (208-week study) was carried out immediately after completion of 57-week study Part B. 208-week study enrolled the 24 subjects who completed Part B and applied similarly an adaptive daily oral administration scheme. ANAVEX2-73-003 involves continuous evaluation of safety and efficacy as measured by the MMSE and ADCS-ADL. At week 148 (interim time point for analyses), data on the subjects remaining in the study (n=21) was analyzed for efficacy outcomes. This report was drafted using data available at week 148, while ANAVEX2-73-003 is still ongoing.
Exploratory clinical efficacy in this study was defined as change from baseline of each patient's cognitive (MMSE) and functional ability (ADCS-ADL) scores. The MMSE57 is a widely used, validated instrument in clinical AD research, including as a cognitive outcome measure in drug trials. The range of the scale is from 0 to 30, with a higher score indicating higher cognitive function. The ADCS-ADL58 is undertaken in a structured caregiver interview format and assesses performance in activities of daily living of patients with AD. The scale is from 0 to 78, with a higher score indicating greater function. The ADCS-ADL has shown to have good test-retest reliability 59. The MMSE and the ADCS-ADL were assessed during pre-specified clinical site visits across 14 different time points during the 57-week study (Weeks 0 and 5 in Part A; Weeks 17, 31, 41, 53, and 57 in Part B), and 208-week study (Weeks 70, 83, 96, 109, 122, 135, and 148) studies.
Corresponding Delta scores were calculated using the difference between values at each visit and at baseline for each individual patient, with a focus on Week 57. In addition, to lower the impact of noise in MMSE and ADCS-ADL scores, a Slope was estimated using a linear regression across all available time points for each individual patient. The derived scores describe the progression of exploratory efficacy data from baseline at several specific time points (Deltas) and over a set period of time (Slope). […]

CN(C)CC1CCOC1(c1ccccc1)c1ccccc1.Cl (centres unmarked) [ANAVEX2-73, tetrahydro-N,N-dimethyl-2,2-diphenyl-3-furanmethanamine hydrochloride]
ADCS-ADL Mean Δ at 57 weeks (Absence of COMT_L146fs variant & Baseline MMSE ≥20, N 11): −0.63 ± 5.33
ADCS-ADL Mean Δ at 57 weeks (Absence of COMT_L146fs variant, N 16): −2.37 ± 6.96
ADCS-ADL Mean Δ at 57 weeks (Absence of SIGMAR1_Q2P variant & Absence of COMT_L145fs variant & Baseline MMSE ≥20, N 10): −0.30 ± 5.50
ADCS-ADL Mean Δ at 57 weeks (Absence of SIGMAR1_Q2P variant, N 16): −3.31 ± 7.64
ADCS-ADL Mean Δ at 57 weeks (Absence of SIGNAR1_Q2P variant & Baseline MMSE ≥20, N 11): −1.27 ± 6.13
unadjusted change in ADCS-ADL score, Mean ± Std. Dev (All Patients (N = 21), Week 0): 0 ± 0
unadjusted change in ADCS-ADL score, Mean ± Std. Dev (All Patients (N = 21), Week 5): −1.65 ± 6.71
unadjusted change in ADCS-ADL score, Mean ± Std. Dev (All Patients (N = 21), Week 17): −1.33 ± 3.85
unadjusted change in ADCS-ADL score, Mean ± Std. Dev (All Patients (N = 21), Week 31): −3.60 ± 8.09
unadjusted change in ADCS-ADL score, Mean ± Std. Dev (All Patients (N = 21), Week 41): −3.95 ± 6.34
unadjusted change in ADCS-ADL score, Mean ± Std. Dev (All Patients (N = 21), Week 53): −5.29 ± 7.47
unadjusted change in ADCS-ADL score, Mean ± Std. Dev (All Patients (N = 21), Week 57): −5.24 ± 8.42
unadjusted change in ADCS-ADL score, Mean ± Std. Dev (All Patients (N = 21), Week 70): −8.81 ± 10.90
unadjusted change in ADCS-ADL score, Mean ± Std. Dev (All Patients (N = 21), Week 83): −9.38 ± 12.69
unadjusted change in ADCS-ADL score, Mean ± Std. Dev (All Patients (N = 21), Week 96): −14.52 ± 15.61
unadjusted change in ADCS-ADL score, Mean ± Std. Dev (All Patients (N = 21), Week 109): −14.25 ± 14.56
unadjusted change in ADCS-ADL score, Mean ± Std. Dev (All Patients (N = 21), Week 122): −17.84 ± 18.89
unadjusted change in ADCS-ADL score, Mean ± Std. Dev (All Patients (N = 21), Week 135): −20.29 ± 18.37
unadjusted change in ADCS-ADL score, Mean ± Std. Dev (All Patients (N = 21), Week 148): −21.16 ± 17.73
ADCS-ADL Mean Δ at 57 weeks (All, N 21): −5.19 ± 8.46
ADCS-ADL Mean Δ at 57 weeks (Baseline MMSE ≥20, N 13): −2.00 ± 5.93
unadjusted change in ADCS-ADL score, Mean ± Std. Dev (Group1 (n 2), Week 0): 0.00 ± 0.00
unadjusted change in ADCS-ADL score, Mean ± Std. Dev (Group1 (n 2), Week 5): 6.50 ± 9.19
unadjusted change in ADCS-ADL score, Mean ± Std. Dev (Group1 (n 2), Week 17): 4.50 ± 0.71
unadjusted change in ADCS-ADL score, Mean ± Std. Dev (Group1 (n 2), Week 31): 6.50 ± 3.54
unadjusted change in ADCS-ADL score, Mean ± Std. Dev (Group1 (n 2), Week 41): 4.50 ± 0.71
unadjusted change in ADCS-ADL score, Mean ± Std. Dev (Group1 (n 2), Week 53): 5.00 ± 1.41
unadjusted change in ADCS-ADL score, Mean ± Std. Dev (Group1 (n 2), Week 57): 6.00 ± 2.83
unadjusted change in ADCS-ADL score, Mean ± Std. Dev (Group1 (n 2), Week 70): 6.00 ± 2.83
unadjusted change in ADCS-ADL score, Mean ± Std. Dev (Group1 (n 2), Week 83): 4.50 ± 2.12
unadjusted change in ADCS-ADL score, Mean ± Std. Dev (Group1 (n 2), Week 96): 5.50 ± 2.12
unadjusted change in ADCS-ADL score, Mean ± Std. Dev (Group1 (n 2), Week 109): 4.00 ± 0.00
unadjusted change in ADCS-ADL score, Mean ± Std. Dev (Group1 (n 2), Week 122): 6.00 ± 2.83
unadjusted change in ADCS-ADL score, Mean ± Std. Dev (Group1 (n 2), Week 135): 6.00 ± 2.83
unadjusted change in ADCS-ADL score, Mean ± Std. Dev (Group1 (n 2), Week 148): 7.00 ± 4.24
unadjusted change in ADCS-ADL score, Mean ± Std. Dev (Group2 (n 6), Week 0): 0.00 ± 0.00
unadjusted change in ADCS-ADL score, Mean ± Std. Dev (Group2 (n 6), Week 5): 0.83 ± 6.59
unadjusted change in ADCS-ADL score, Mean ± Std. Dev (Group2 (n 6), Week 17): 1.33 ± 2.80
unadjusted change in ADCS-ADL score, Mean ± Std. Dev (Group2 (n 6), Week 31): 0.33 ± 5.39
unadjusted change in ADCS-ADL score, Mean ± Std. Dev (Group2 (n 6), Week 41): 0.50 ± 4.09
unadjusted change in ADCS-ADL score, Mean ± Std. Dev (Group2 (n 6), Week 53): 0.50 ± 4.18
unadjusted change in ADCS-ADL score, Mean ± Std. Dev (Group2 (n 6), Week 57): 1.83 ± 3.66
unadjusted change in ADCS-ADL score, Mean ± Std. Dev (Group2 (n 6), Week 70): 0.33 ± 4.93
unadjusted change in ADCS-ADL score, Mean ± Std. Dev (Group2 (n 6), Week 83): −0.67 ± 5.85
unadjusted change in ADCS-ADL score, Mean ± Std. Dev (Group2 (n 6), Week 96): −2.50 ± 7.71
unadjusted change in ADCS-ADL score, Mean ± Std. Dev (Group2 (n 6), Week 109): −3.83 ± 7.96
unadjusted change in ADCS-ADL score, Mean ± Std. Dev (Group2 (n 6), Week 122): −3.00 ± 6.72
unadjusted change in ADCS-ADL score, Mean ± Std. Dev (Group2 (n 6), Week 135): −4.17 ± 10.42
unadjusted change in ADCS-ADL score, Mean ± Std. Dev (Group2 (n 6), Week 148): −8.17 ± 15.96
unadjusted change in ADCS-ADL score, Mean ± Std. Dev (Group 3 (n 11), Week 0): 0.00 ± 0.00
unadjusted change in ADCS-ADL score, Mean ± Std. Dev (Group 3 (n 11), Week 5): −0.09 ± 6.32
unadjusted change in ADCS-ADL score, Mean ± Std. Dev (Group 3 (n 11), Week 17): 0.09 ± 3.45
unadjusted change in ADCS-ADL score, Mean ± Std. Dev (Group 3 (n 11), Week 31): −1.82 ± 5.71
unadjusted change in ADCS-ADL score, Mean ± Std. Dev (Group 3 (n 11), Week 41): −2.27 ± 6.40
unadjusted change in ADCS-ADL score, Mean ± Std. Dev (Group 3 (n 11), Week 53): −1.73 ± 5.61
unadjusted change in ADCS-ADL score, Mean ± Std. Dev (Group 3 (n 11), Week 57): −1.36 ± 6.09
